Laboratory results reported in patent publication EP1006112A1, “3-Hydroxy-2(1H)-pyridinone or 3-hydroxy-4(1H)-pyridinone derivatives useful as reactive oxygen species (ROS) scavengers” (Cerebrus Pharmaceuticals Limited, priority 1998, dated 2000).
Where a name gives a salt, the structure may show the parent alone.

Key:
[1] = system: Lipid peroxidation in rat brain homogenates; experiment: Lipid peroxidation assay (ascorbic acid-induced, TBA/MDA readout); assay type: biochemical; conditions: concentration required to inhibit lipid peroxidation by 50%; rat cortex preparation, 500-µM L-ascorbic acid, 37 °C, 30 min
Description: Lipid peroxidation in rat brain homogenates is a general procedure used to measure the antioxidant capacity of molecules in a biological environment (Das N.P. and Ratty A.K., Biochem. Med. Metab. Biol, 1987, 37, 256-264).
Rat cortex was homogenised in 20 vols. of ice cold 0.32-M sucrose and centrifuged at 1,000 g for 10 min. The pellet was discarded whilst the resulting supernatant was centrifuged at 15,000 g for 20 min at 4 °C to yield p2 pellets. The pellet was re-suspended in ice-cold 50.0-mM phosphate buffer and centrifuged at 30,000 g for 20 min at 4 °C. The pellet was re-suspended in 30 vols. of 50.0-mM phosphate buffer and used immediately in the assay.
Assays contained 500-µM L-ascorbic acid to induce lipid peroxidation, plus various concentrations of test compound, with the tissue preparation in a total volume of 500 µL. This was incubated at 37 °C for 30 min. Lipid peroxidation was measured by adding to the reaction mixture, 300 µL 40 % (w/v) trichloroacetic acid, 150 µL 5.0-M HCl and 300 µL 2 % (w/v) 2-thiobarbituric acid (TBA). […] The pink colour of the supernatant was assessed spectrophotometrically at a wavelength of 532 nm. The amount of malondialdehyde (MDA) in the samples was calculated using a standard curve prepared with malondialdehyde tetrabutylammonium salt (Das, N.P. and Ratty, A.K. Biochem. Med. Metab. Biol. (1987), 37, 256-264). […]

[2] = system: cerebellar granule cell (CGC) cultures; experiment: Iodoacetate induced cell toxicity in culture (cell death, MTT-reductase activity); assay type: cell-based; conditions: protection of CGC after 30-µM IAA for 30 min (with 10-µM MK-801), 24 hour incubation with test compound
Description: After 6-8 days in culture, cerebellar granule cell (CGC) cultures in 96-well plates (250,000 cells per well) were prepared for hypoglycaemia. lodoacetate (IAA) was made up in a balanced salt solution (BSS) (NaCl, 154.0-mM; KCl, 5.6-mM; MgCl2, 1.0-mM; CaCl2, 2.5-mM; N-[2-hydroxyethyl]piperazine-N'-[2-ethanesulfonic acid] (HEPES), 10.0-mM; D-glucose, 5.6-mM; pH 7.4) and any neuroprotective agents were made up in pre-warmed tissue culture media and allowed to equilibrate in a controlled environment (5 % CO2, 95 % air). The assay was initiated by aspiration of the maintenance media, which was replaced by either BSS (control) or 30-µM IAA in BSS, both solutions containing 10-µM of the NMDA receptor antagonist MK-801. The exposure to IAA was for 30 min only at 37 °C, after which time the BSS was aspirated and replaced with fresh, pre-equilibriated maintenance media containing various concentrations of test compound. All conditions were performed at least in duplicate in each 96 well plate. The final volume for each well was always 200 µL. Following a 24 hour incubation, visual inspection of the cells was followed by quantification of neuronal cell death by measuring 3-[4,5-dimethylthiazol-2-yl]-2,5-diphenyltetrazolium bromide (MTT)-reductase activity as described previously (Malcolm et al., J. Neurochem. 1996, 66, 2350-2360).

| SMILES | IC50 [1] [µM] | EC50 [2] [µM] |
| --- | --- | --- |
| COc1ccc2[nH]cc(CCn3ccc(=O)c(O)c3C)c2c1 [Example 2, 3-Hydroxy-1-(2-(5-methoxy-3-indolyl)ethyl)-2-methyl-4(1H)-pyridinone] | 2 | 11.9 |
| COc1ccc2[nH]cc(CCNC(=O)CCn3ccc(=O)c(O)c3C)c2c1 [Example 1, 3-(1,4-Dihydro-3-hydroxy-2-methyl-4-oxo-1-pyridinyl)-N-(2-(5-methoxy-3-indolyl)ethyl)propanamide mesylate] | 1.5 | 4.9 |
